# According to patent publication US20130102009A1, “SIRTUIN ACTIVATORS AND ACTIVATION ASSAYS” (priority 2010, published 2013):
# “Also recorded” adds a separate entry of the source. Where a name gives a salt, the structure may show the parent alone.
# Assays:
# SIRT1 = target: T1, SIRT1 (Homo sapiens, UniProt Q96EB6); experiment: Mass spectrometry based SIRT1 activation assay (TAMRA/5TMR-labeled 20mer peptide); assay type: biochemical; details: for Emax: 25 min, percent maximum fold activation of SIRT1, read-out: % FOLD ACT.; for EC1.5 uM: concentration that results in 150% activation of SIRT1
# T1 sequence (Q96EB6 1-747): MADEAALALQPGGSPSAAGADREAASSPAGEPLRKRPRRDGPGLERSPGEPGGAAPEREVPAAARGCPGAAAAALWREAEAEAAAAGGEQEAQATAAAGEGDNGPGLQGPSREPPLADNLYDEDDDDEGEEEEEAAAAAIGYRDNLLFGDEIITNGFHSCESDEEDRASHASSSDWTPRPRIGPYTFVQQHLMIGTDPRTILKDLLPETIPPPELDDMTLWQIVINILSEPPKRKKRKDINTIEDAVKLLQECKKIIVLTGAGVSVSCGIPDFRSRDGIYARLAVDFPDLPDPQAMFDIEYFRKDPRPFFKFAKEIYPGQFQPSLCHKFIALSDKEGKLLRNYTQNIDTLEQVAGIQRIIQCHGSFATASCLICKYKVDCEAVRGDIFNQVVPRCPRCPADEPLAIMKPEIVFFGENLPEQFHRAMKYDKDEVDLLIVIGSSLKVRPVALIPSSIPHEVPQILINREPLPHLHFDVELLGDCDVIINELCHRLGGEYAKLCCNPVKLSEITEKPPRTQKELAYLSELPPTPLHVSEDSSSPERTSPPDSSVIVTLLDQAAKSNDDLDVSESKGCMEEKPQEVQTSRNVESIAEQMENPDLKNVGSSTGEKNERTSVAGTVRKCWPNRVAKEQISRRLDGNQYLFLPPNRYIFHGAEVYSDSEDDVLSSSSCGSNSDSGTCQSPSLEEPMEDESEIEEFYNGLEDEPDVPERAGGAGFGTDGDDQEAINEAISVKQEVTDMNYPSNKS
# Method in brief: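 N-terminal His-tagged human SIRT1 from E. coli BL21(DE3), 10 nM, incubated 25 min at 25° C with 0.5 μM biotin/5TMR-labeled acetylated p53-derived 20mer peptide and 120 μM βNAD+ in Tris-acetate pH 8 buffer with DTT and BSA. Formic acid stop; MS quantifies acetylated vs deacetylated peptide. EC1.5 = concentration giving 150% activation.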
# TAMRA-peptide = experiment: ITC binding of STACs to TAMRA-peptide; details: 26° C.; for Kd: pH 7.3, read-out: Kd for the binding of activator to TAMRA-peptide
# Method: ITC experiments were performed using either a VP-ITC system or iTC200 system (MicroCal) at 26° C. in a buffer composed of 137 mM NaCl, 2.7 mM KCl, 1 mM MgCl2, 2 mM TCEP, 5% (v/v) glycerol and 50 mM HEPES-NaOH, pH 7.3. SIRT1(183-664) was purified and dialyzed against the buffer, centrifuged, and degassed before the experiment. The peptide and compounds were dissolved in the final dialysis buffer and their pH values were adjusted to match that of the protein solution. […] To characterize this interaction using the iTC200 system, 1 mM TAMRA-peptide was injected in 20 aliquots of 2 μL, (except the first injection, which was 0.5 μL) into a 0.202 mL sample cell containing 100 μM STAC. For STACs with poor solubility, the concentrations were adjusted accordingly. […] In all cases, data was corrected for the heat of dilution and fitted using a nonlinear least-squares routine using a single-site binding model with Origin for ITC v7.0383 (Microcal) with the stoichiometry (n), the enthalpy of the reaction (ΔH) and the association constant (Ka) calculated.
SMILES,Emax (SIRT1) [%],EC1.5 uM (SIRT1),Kd for the binding of activator to TAMRA-peptide (TAMRA-peptide; pH 7.3),Kd (TAMRA-peptide) [µM]
"CCCCc1nc(NC2CCNCC2)cc(C(=O)Nc2ccccc2-c2nc3cc(COC4CCNCC4)cnc3s2)n1 [Compound 10, 2-butyl-6-(piperidin-4-ylamino)-N-(2-(6-((piperidin-4-yloxy)methyl)thiazolo[5,4-b]pyridin-2-yl)phenyl)pyrimidine-4-carboxamide]",≥ 200,A (EC1.5≦1 μM),,2.5
"CN(C)CCCNc1cc(-c2nc3c(NC(=O)c4ccc(CN5CCNCC5)cc4)cccc3[nH]2)ccn1 [Compound 14, N-(2-(2-(3-(dimethylamino)propylamino)pyridin-4-yl)-1H-benzo[d]imidazol-4-yl)-4-(piperazin-1-ylmethyl)benzamide trihydrochloride]",≥ 200,A (EC1.5≦1 μM),,
COc1cc(C(=O)Nc2ccccc2-c2cn3c(CN4CCNCC4)csc3n2)cc(OC)c1OC [SRT1460],,,,140

# Second part, led by results:
Emax (SIRT1) [%],EC1.5 uM (SIRT1),SMILES,Kd for the binding of activator to TAMRA-peptide (TAMRA-peptide; pH 7.3),Kd (TAMRA-peptide) [µM]
< 200,B (EC1.5>1 μM),"CN(C)Cc1cnc2sc(-c3ccccc3NC(=O)c3cnc4ccccc4n3)nc2c1 [Compound 2, N-(2-(6-((dimethylamino)methyl)thiazolo[5,4-b]pyridin-2-yl)phenyl)quinoxaline-2-carboxamide]",,
≥ 200,A (EC1.5≦1 μM),"Cc1nc(-c2cccnc2)sc1C(=O)Nc1ccccc1-c1cn2c(CN3CC4CC3CN4)csc2n1 (stereo not drawn) [Compound 4, N-(2-(3-(2,5-diazabicyclo[2.2.1]heptan-2-ylmethyl)imidazo[2,1-b]thiazol-6-yl)phenyl)-4-methyl-2-(pyridin-3-yl)thiazole-5-carboxamide]",no detectable binding; also recorded: lack of binding,> 100
